This note sets out measurements from PubChem BioAssay (NCI).

Assay in all cases: NCI tumour cell line growth inhibition, 48 h
Experiment [1] has as its system SK-MEL-2 melanoma.
The test system of experiment [2] is RXF 393 renal.
Experiment [3] has as its system UACC-257 melanoma.
For experiment [4], the system named is HCT-116 colon.
Experiment [5] relates to SNB-19 CNS.
Experiment [6] has as its system HOP-92 NSCLC.
Experiment [7] has as its system SR leukemia.
Experiment [8] deals with IGROV1 ovarian.
For experiment [9], the system named is TK-10 renal.
Experiment [10] concerns OVCAR-4 ovarian.
Experiment [11] deals with T-47D breast.
In experiment [12] the test system is SK-MEL-5 melanoma.
Experiment [13] relates to CAKI-1 renal.
The subject of experiment [14] is SW-620 colon.
Experiment [15] deals with M14 melanoma.
Experiment [16] relates to RPMI-8226 leukemia.
Experiment [17] deals with SK-MEL-28 melanoma.
The subject of experiment [18] is HOP-62 NSCLC.
Experiment [19] concerns HL-60(TB) leukemia.
Experiment [20] has as its system MOLT-4 leukemia.

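Interpolation was linear, between the two tested concentrations surrounding the appropriate level; five concentrations were tested over 48 hours in 96-well plates. The concentration for full growth arrest is given as TGI.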

Turning to `O=C(O)c1ccccc1CC(Cc1ccccc1)C(=O)O` (stereo unspecified), the TGI in experiment [1], in experiment [2], in [3], in experiment [4], in experiment [5] and in experiment [6] was more than 100 µM in each case. Also, the TGI in [7], in [8], in experiment [9], in [10], in experiment [11] and in experiment [12] was more than 100 µM each time. For the same molecule, the TGI in experiment [13], in experiment [14], in experiment [15], in experiment [16], in [17] and in experiment [18] was more than 100 µM in each case. The TGI in experiment [19] and in experiment [20] was more than 100 µM each time.

For `Nc1ncc(Sc2ccccc2C(=O)O)s1`, the TGI in [1], in [2], in [3], in experiment [4], in [5] and in experiment [6] was more than 100 µM in each case. Further, the TGI in experiment [7], in experiment [8], in [9], in [11], in [12] and in experiment [13] was more than 100 µM each time. The TGI in experiment [14], in experiment [15], in experiment [16], in [17], in experiment [18] and in experiment [19] was more than 100 µM each time. Further, the TGI in experiment [20] was more than 100 µM.

As to `CCCCC1Cc2cc(OC)ccc2-c2n1c1cc(OC)ccc1[n+]2C` (stereo unspecified) (tested in a mixture with another compound), the TGI in [1] was 13 µM; in [2], 45.8 µM; in experiment [3], more than 34.3 µM; in experiment [4], more than 39.9 µM; in [6], 7.02 µM; in experiment [7], 12.1 µM. Also, the TGI in experiment [8] is 6.61 µM; in experiment [9], 31.9 µM; in experiment [10] it was 20.7 µM; in experiment [11] it was 45.1 µM; in experiment [12] it was 3.76 µM; in experiment [13], more than 100 µM. Besides, the TGI in [14] is more than 55.5 µM; in experiment [15], 25.7 µM; in experiment [16], 2.17 µM; in experiment [17], 25.8 µM; in experiment [18], more than 61.7 µM; in experiment [19], 1.71 µM. Also, the TGI in experiment [20] is more than 51.6 µM.

In the case of `Clc1ccc(Cn2cc(/C=N/n3cnnc3)c3ccccc32)cc1`, the TGI was 82.9 µM in experiment [1]; 46.8 µM in experiment [2]; more than 100 µM in [3]; more than 100 µM in experiment [4]; more than 100 µM in [5]; 68.3 µM in experiment [6]. Moreover, the TGI in [7] was more than 100 µM; in experiment [8], more than 100 µM; in experiment [9] it was 28.7 µM; in experiment [10] it was more than 100 µM; in [11], 52.3 µM; in [12] it was more than 100 µM. Besides, the TGI in experiment [13], in experiment [14], in experiment [15], in [16], in [17] and in [18] was more than 100 µM in each case. Also, the TGI in experiment [19] and in experiment [20] was more than 100 µM each time.

Regarding `CC(=O)Nc1sccc1S(=O)(=O)c1ccc(Cl)cc1`, the TGI in experiment [1], in experiment [2], in experiment [3], in [4], in experiment [5] and in experiment [6] was more than 100 µM in each case. Moreover, the TGI in experiment [7], in [8], in experiment [9], in experiment [10], in experiment [11] and in experiment [12] was more than 100 µM each time. For the same molecule, the TGI in experiment [13], in experiment [14], in experiment [15], in [16], in [17] and in experiment [19] was more than 100 µM each time. In addition, the TGI in experiment [20] is more than 100 µM.

Take `CC(=O)Oc1ccc2cc(Oc3ccccc3)c(=O)oc2c1`: the TGI in experiment [2], in experiment [3], in experiment [4], in experiment [5], in [6] and in experiment [7] was more than 100 µM each time. Further, the TGI in [8], in experiment [9], in experiment [10], in experiment [11], in experiment [12] and in [13] was more than 100 µM each time. Besides, the TGI in experiment [14], in experiment [15], in experiment [16], in experiment [17], in experiment [18] and in experiment [19] was more than 100 µM in each case.

Take `O=C(O)Cc1ccc(Oc2nc3ccccc3nc2-c2ccccc2)cc1`: the TGI is more than 100 µM in experiment [1]; 98.2 µM in experiment [2]; more than 100 µM in [3]; more than 100 µM in experiment [4]; more than 100 µM in experiment [5]; more than 100 µM in experiment [7]. Also, the TGI in experiment [8], in experiment [9], in experiment [10], in experiment [11], in [12] and in experiment [13] was more than 100 µM throughout. For the same molecule, the TGI in experiment [14], in experiment [15], in experiment [16], in experiment [17], in experiment [18] and in experiment [19] was more than 100 µM each time. Further, the TGI in experiment [20] was more than 100 µM.

In the case of `COc1cccc(/C=C2/S/C(=N/Nc3nc(C)c(C(C)=O)s3)NC2=O)c1O`, the TGI in experiment [1] is 48 µM; in [2] it was 93.2 µM; in experiment [3], 86.2 µM; in experiment [4] it was more than 100 µM; in experiment [5], more than 100 µM; in experiment [6] it was 91.7 µM. In addition, the TGI in [7] was more than 100 µM; in experiment [8], more than 100 µM; in experiment [9] it was 94.2 µM; in [10], more than 100 µM; in experiment [11] it was 96.5 µM; in experiment [12], 43.5 µM. The TGI in experiment [13] is more than 100 µM; in experiment [14] it was more than 100 µM; in experiment [15] it was more than 100 µM; in experiment [16], 84.6 µM; in [17], more than 100 µM; in experiment [18], more than 100 µM. The TGI in [19] worked out at 46 µM.

Consider `COC(=O)c1ccccc1/C=C1\Cc2ccc3ccccc3c2C1C` (stereo unspecified), for which the TGI in experiment [1] was more than 100 µM; in experiment [2], more than 100 µM; in [3], more than 100 µM; in experiment [4], 46.1 µM; in [5], more than 100 µM; in [6], more than 100 µM. In addition, the TGI was more than 100 µM in experiment [7]; more than 100 µM in [8]; more than 100 µM in [9]; more than 100 µM in experiment [10]; 69 µM in [11]; 64.5 µM in [12]. Moreover, the TGI in experiment [13], in experiment [14], in experiment [15], in [16], in [17] and in [19] was more than 100 µM throughout. Also, the TGI in experiment [20] was more than 100 µM.

Consider `NC(N)=N/N=C\c1c(-c2ccccc2)nc2sccn12`, for which the TGI in experiment [1] was 28.6 µM; in [2], 26.3 µM; in experiment [3], 26.3 µM; in experiment [4], 28.5 µM; in [5], 27.3 µM; in experiment [6] it was 27.4 µM. Moreover, the TGI was more than 100 µM in experiment [7]; 27 µM in [8]; 31.2 µM in [9]; 29.5 µM in [10]; 29.1 µM in experiment [11]; 29.2 µM in experiment [12]. Besides, the TGI in experiment [13] is 29.6 µM; in [14] it was 28.1 µM; in experiment [16] it was 49 µM; in [17] it was 29.1 µM; in [18], 29.1 µM; in experiment [19] it was 53.3 µM. In experiment [20], this molecule came in with a TGI of 51.7 µM.

Turning to `Clc1cccc2[nH]ncc12`, the TGI in experiment [1], in [2], in experiment [3], in [4], in [5] and in experiment [6] was more than 100 µM throughout. For the same molecule, the TGI in experiment [7], in [8], in [9], in [10], in experiment [11] and in experiment [12] was more than 100 µM in each case. For the same molecule, the TGI in experiment [13], in experiment [14], in [16], in experiment [17], in [18] and in experiment [19] was more than 100 µM throughout. This molecule registered a TGI in [20] of more than 100 µM.

As to `O=S(=O)(O)c1ccc2c(N=Nc3c(O)ccc4ccccc34)cccc2c1`, the TGI in experiment [1], in experiment [2], in experiment [3], in experiment [4], in experiment [5] and in experiment [6] was more than 100 µM throughout. Besides, the TGI in experiment [7], in experiment [8], in experiment [9], in [10], in experiment [11] and in [12] was more than 100 µM each time. The TGI in [13], in [14], in experiment [15], in experiment [16], in experiment [17] and in [18] was more than 100 µM in each case. The molecule also showed a TGI in experiment [19] of more than 100 µM.

For `O=c1[nH]nc(Cc2ccccc2)n1C1CC1`, the TGI in experiment [2], in [3], in experiment [4], in experiment [5], in experiment [6] and in [7] was more than 100 µM each time. Further, the TGI in [8], in experiment [9], in experiment [10], in experiment [11], in experiment [12] and in experiment [13] was more than 100 µM in each case. Further, the TGI in experiment [14], in experiment [15], in experiment [16], in [17], in experiment [18] and in experiment [19] was more than 100 µM throughout. In experiment [20], this molecule showed a TGI of more than 100 µM.

For `Cc1cc(C)nc(NC(=S)Nc2ccc(Cl)cc2)c1`, the TGI in [1], in [2], in experiment [3], in [4], in experiment [5] and in experiment [7] was more than 100 µM throughout. Also, the TGI in [8] was more than 100 µM; in [9], more than 100 µM; in [10] it was 61.1 µM; in experiment [11] it was more than 100 µM; in [12], more than 100 µM; in experiment [13] it was more than 100 µM. For the same molecule, the TGI in experiment [14], in experiment [15], in [16], in experiment [17], in experiment [18] and in [19] was more than 100 µM in each case. The molecule also displayed a TGI in [20] of more than 100 µM.

On to `COC1(c2ccccc2)NC(=S)NN=C1c1ccccc1` (stereo unspecified), for which the TGI in experiment [1] was 75.8 µM; in [2], more than 100 µM; in experiment [3], more than 100 µM; in experiment [4], more than 100 µM; in experiment [5], more than 100 µM; in experiment [6] it was more than 100 µM. Moreover, the TGI in experiment [7] was 85.8 µM; in experiment [8], more than 100 µM; in experiment [9], more than 100 µM; in experiment [11] it was more than 100 µM; in experiment [12], 80.7 µM; in experiment [13], more than 100 µM. In addition, the TGI in experiment [14] was more than 100 µM; in experiment [15] it was more than 100 µM; in experiment [16], more than 100 µM; in experiment [17], more than 100 µM; in [18], more than 100 µM; in experiment [19], 54.5 µM. In experiment [20], this molecule displayed a TGI of more than 100 µM.
